Patent US10105357B2, “Indication of antibiotic drugs for preparation of cancer inhibition pharmaceutical composition” (LAUNX BIOMEDICAL CO., LTD., priority 2014, dated 2018)
Like-named read-outs stand apart in the source and are kept apart here.

Tests used:
[1] = system: Hep3B (hepatocellular carcinoma); test: Cell viability analysis, hepatic cancer Hep3B; assay type: cell-based, human; conditions: Homo sapiens, Hep3B, 72 h, read-out: The results of antibiotic drug inhibiting cancer cell lines (cell viability analysis), Hep3B
[2] = system: BCC (basal cell carcinoma); test: Cell viability analysis, skin cancer BCC; assay type: cell-based, human; conditions: Homo sapiens, 72 h, read-out: The results of antibiotic drug inhibiting cancer cell lines (cell viability analysis), BCC
[3] = system: A549 (Lung Adenocarcinoma); test: Cell viability analysis, lung cancer A549; assay type: cell-based, human; conditions: Homo sapiens, A549, 72 h
[4] = system: HCT116 (p53+) (Colorectal Carcinoma)
AsPC-1 = test: Cell viability analysis, pancreatic cancer AsPC-1; assay type: cell-based, human; conditions: Homo sapiens, ASPC1, 72 h, read-out: The results of antibiotic drug inhibiting cancer cell lines (cell viability analysis), AsPC-1
[5] = system: A375 (Amelanotic Melanoma); test: Cell viability analysis, skin cancer A375; assay type: cell-based, human; conditions: Homo sapiens, A-375, 72 h
NIH: OVCAR-3 = test: Cell viability analysis, ovarian cancer NIH: OVCAR-3; assay type: cell-based, human; conditions: Homo sapiens, OVCAR-3, 72 h, read-out: The results of antibiotic drug inhibiting cancer cell lines (cell viability analysis), NIH-OVCAR-3
[6] = system: AGS (Gastric Adenocarcinoma); test: Cell viability analysis, gastric cancer AGS; assay type: cell-based, human; conditions: Homo sapiens, 72 h
TOV-21G = test: Cell viability analysis, ovarian cancer TOV-21G; assay type: cell-based, human; conditions: Homo sapiens, TOV21G, 72 h, read-out: The results of antibiotic drug inhibiting cancer cell lines (cell viability analysis), TOV-21G
BxPC-3 = test: Cell viability analysis, pancreatic cancer BxPC-3; assay type: cell-based, human; conditions: Homo sapiens, BXPC-3, 72 h, read-out: The results of antibiotic drug inhibiting cancer cell lines (cell viability analysis), BxPC-3
[7] = system: MKN-45 (Gastric Adenocarcinoma); test: Cell viability analysis, gastric cancer MKN-45; assay type: cell-based, human; conditions: Homo sapiens, MKN-45, 72 h
cancer cell lines = test: Cell viability analysis (WST-1) on cancer cell lines; assay type: cell-based, human; conditions: drug 10 μM, 72 hours, WST-1; Table 3
[8] = system: MCF7 (Mammary Gland, Adenocarcinoma); test: Cell viability analysis, breast cancer MCF7; assay type: cell-based, human; conditions: Homo sapiens, MCF7, 72 h
[9] = system: TSGH-8301 (Urinary Bladder Carcinoma); test: Cell viability analysis, bladder cancer TSGH-8301; assay type: cell-based, human; conditions: Homo sapiens, 72 h
T24 = test: Cell viability analysis, bladder cancer T24; assay type: cell-based, human; conditions: Homo sapiens, T-24, 72 h, read-out: The results of antibiotic drug inhibiting cancer cell lines (cell viability analysis), T24
[10] = system: HeLa (Cervix Adenocarcinoma); test: Cell viability analysis, cervical cancer HeLa; assay type: cell-based, human; conditions: Homo sapiens, HeLa, 72 h
[11] = system: HI650 (Lung Adenocarcinoma); test: Cell viability analysis, lung cancer HI650; assay type: cell-based, human; conditions: Homo sapiens, NCI-H1650, 72 h
[12] = system: HL-60 (Acute Promyelocytic Leukemia); test: Cell viability analysis, leukemia HL-60; assay type: cell-based, human; conditions: Homo sapiens, HL-60, 72 h, read-out: cell viability (survival rate), HL-60, drug 10 μM, 72 hours, WST-1, OD450 nm
[13] = system: 786-O (Renal adenocarcinoma); test: Cell viability analysis, renal cancer 786-O; assay type: cell-based, human; conditions: Homo sapiens, 786-0, 72 h, read-out: The results of antibiotic drug inhibiting cancer cell lines (cell viability analysis), 786-O
[14] = system: SAS (Tongue squamous cell carcinoma); test: Cell viability analysis, tongue cancer SAS; assay type: cell-based, human; conditions: Homo sapiens, 72 h, read-out: The results of antibiotic drug inhibiting cancer cell lines (cell viability analysis), SAS
[15] = system: LoVo (Colorectal Adenocarcinoma); test: Cell viability analysis, colon cancer LoVo; assay type: cell-based, human; conditions: Homo sapiens, LoVo, 72 h
U-2OS = test: Cell viability analysis, osteosarcoma U-2OS; assay type: cell-based, human; conditions: Homo sapiens, U2OS, 72 h, read-out: The results of antibiotic drug inhibiting cancer cell lines (cell viability analysis), U2OS
[16] = system: MDA-MB-231 (Mammary Gland, Adenocarcinoma); test: Cell viability analysis, breast cancer MDA-MB-231; assay type: cell-based, human; conditions: Homo sapiens, MDA-MB-231, 72 h, read-out: The results of antibiotic drug inhibiting cancer cell lines (cell viability analysis), MDA-MB231
[17] = system: PC3 (p53−) (Prostate Adenocarcinoma); test: Cell viability analysis, prostate cancer PC3; assay type: cell-based, human; conditions: Homo sapiens, 72 h
[18] = read-out: The results of antibiotic drug inhibiting cancer cell lines (cell viability analysis), A549, A549, repeated experiment
[19] = read-out: cell viability (survival rate), A549, drug 10 μM, 72 hours, WST-1, OD450 nm
[20] = read-out: The results of antibiotic drug inhibiting cancer cell lines (cell viability analysis), A375, A375, repeated experiment
[21] = read-out: cell viability (survival rate), A375, drug 10 μM, 72 hours, WST-1, OD450 nm
[22] = read-out: The results of antibiotic drug inhibiting cancer cell lines (cell viability analysis), AGS, repeated experiment
[23] = read-out: cell viability (survival rate), AGS, drug 10 μM, 72 hours, WST-1, OD450 nm
[24] = read-out: The results of antibiotic drug inhibiting cancer cell lines (cell viability analysis), MKN-45, MKN-45, repeated experiment
[25] = read-out: cell viability (survival rate), MKN-45, drug 10 μM, 72 hours, WST-1, OD450 nm
[26] = read-out: The results of antibiotic drug inhibiting cancer cell lines (cell viability analysis), MCF-7, MCF-7, repeated experiment
[27] = read-out: cell viability (survival rate), MCF7, drug 10 μM, 72 hours, WST-1, OD450 nm
[28] = read-out: The results of antibiotic drug inhibiting cancer cell lines (cell viability analysis), TSGH-8301, TSGH-8301, repeated experiment
[29] = read-out: cell viability (survival rate), TSGH, drug 10 μM, 72 hours, WST-1, OD450 nm
[30] = read-out: The results of antibiotic drug inhibiting cancer cell lines (cell viability analysis), HeLa, repeated experiment
[31] = read-out: cell viability (survival rate), HeLa, drug 10 μM, 72 hours, WST-1, OD450 nm
[32] = read-out: The results of antibiotic drug inhibiting cancer cell lines (cell viability analysis), H1650, H1650, repeated experiment
[33] = read-out: cell viability (survival rate), H1650, drug 10 μM, 72 hours, WST-1, OD450 nm
[34] = read-out: The results of antibiotic drug inhibiting cancer cell lines (cell viability analysis), LoVo, repeated experiment
[35] = read-out: cell viability (survival rate), LoVo, drug 10 μM, 72 hours, WST-1, OD450 nm
[36] = read-out: The results of antibiotic drug inhibiting cancer cell lines (cell viability analysis), PC-3, PC-3, repeated experiment
[37] = read-out: cell viability (survival rate), PC3, drug 10 μM, 72 hours, WST-1, OD450 nm

Structure (SMILES)	viability at 10 µM [1] [%]	viability at 10 µM [2] [%]	viability at 10 µM [3, 18] [%]	viability at 10 µM [3, 19] [%]	viability [4] [%]	viability at 10 µM (AsPC-1) [%]	viability at 10 µM [5, 20] [%]	viability at 10 µM [5, 21] [%]	viability at 10 µM (NIH: OVCAR-3) [%]	viability at 10 µM [6, 22] [%]	viability at 10 µM [6, 23] [%]	viability at 10 µM (TOV-21G) [%]	viability at 10 µM (BxPC-3) [%]	viability at 10 µM [7, 24] [%]	viability at 10 µM [7, 25] [%]	inhibition effect on different cancer cell lines (cancer cell lines)	viability at 10 µM [8, 26] [%]	viability at 10 µM [8, 27] [%]	viability at 10 µM [9, 28] [%]	viability at 10 µM [9, 29] [%]	further results
CC(C)(C)C(=O)OCOP(=O)(COCCn1cnc2c(N)ncnc21)OCOC(=O)C(C)(C)C [Adefovir Dipivoxil (Preveon, Hepsera), Adefovir Dipivoxil]	71.5	38.9	76.7	47.3	55.4	48.7	37.7	81.7	78.8	78	35.1	77.3	56.9	86.6	46.1	significant inhibition effect	75.5	56.7	70	47	viability at 10 µM (T24): 44.8%; viability at 10 µM [10, 30]: 77.4%; viability at 10 µM [10, 31]: 96.6%; viability at 10 µM [11, 32]: 54%; viability at 10 µM [11, 33]: 55.3%; viability at 10 µM [12]: 60.4%; viability at 10 µM [13]: 25.9%; viability at 10 µM [14]: 40%; viability at 10 µM [15, 34]: 58.1%; viability at 10 µM [15, 35]: 62%; viability at 10 µM (U-2OS): 68.5%; viability at 10 µM [16]: 71.9%; viability at 10 µM [17, 36]: 74.8%; viability at 10 µM [17, 37]: 91.3%
CC(NC(C)(C)C)C(=O)c1cccc(Cl)c1 (centres unmarked) [Amfebutamone (Bupropion), Amfebutamone]	82.1	77.5	69.1	59.2	78.3	84.3	88.4	88.2	109	117	30	97.5	79.6	103	52.1	significant inhibition effect	69	64.7	116	44.9	viability at 10 µM (T24): 99.6%; viability at 10 µM [10, 30]: 84.5%; viability at 10 µM [10, 31]: 53.4%; viability at 10 µM [11, 32]: 96%; viability at 10 µM [11, 33]: 74.3%; viability at 10 µM [12]: 118%; viability at 10 µM [13]: 103%; viability at 10 µM [14]: 110%; viability at 10 µM [15, 34]: 115%; viability at 10 µM [15, 35]: 51.4%; viability at 10 µM (U-2OS): 92.3%; viability at 10 µM [16]: 80.3%; viability at 10 µM [17, 36]: 87.9%; viability at 10 µM [17, 37]: 62.8%
